{"source": "patent US20050009005A1", "about": "“Methods of using quantitative lipid metabolome data” (Lipomics Technologies, Inc., priority 2001, published 2005)", "system": "de novo fatty acid synthesis", "key": {"[1]": {"settings": "Heart, FFA, mean of treated mice"}, "[2]": {"settings": "Heart, PC, mean of treated mice"}, "[3]": {"settings": "Heart, PS/I, mean of treated mice"}, "[4]": {"settings": "Heart, TAG, mean of treated mice"}, "[5]": {"settings": "Liver, CE, mean of treated mice"}}, "note": "Like-named read-outs stand apart in the source and are kept apart here.", "data": [{"smiles": "CN(CCOc1ccc(CC2SC(=O)NC2=O)cc1)c1ccccn1", "note": "(stereo not shown) [rosiglitazone]", "values": [{"measurement": "16:1n7", "setting": "Heart, CL, mean", "result": "2.0 percentage of total fatty acids within each lipid class"}, {"measurement": "18:0", "setting": "Heart, CL, mean", "result": "2.4 percentage of total fatty acids within each lipid class"}, {"measurement": "18:1n7", "setting": "Heart, CL, mean", "result": "3.0 percentage of total fatty acids within each lipid class"}, {"measurement": "18:1n9", "setting": "Heart, CL, mean", "result": "5.0 percentage of total fatty acids within each lipid class"}, {"measurement": "Saturates", "setting": "Heart, CL, mean", "result": "4.1 percentage of total fatty acids within each lipid class"}, {"measurement": "Total", "setting": "Heart, CL, mean", "result": "100.0 percentage of total fatty acids within each lipid class"}, {"measurement": "Total n7", "setting": "Heart, CL, mean", "result": "5.1 percentage of total fatty acids within each lipid class"}, {"measurement": "Total n9", "setting": "Heart, CL, mean", "result": "5.3 percentage of total fatty acids within each lipid class"}, {"measurement": "14:0", "setting": "Heart, FFA, mean", "result": "2.1 percentage of total fatty acids within each lipid class"}, {"measurement": "16:0", "setting": "Heart, FFA, mean", "result": "22.6 percentage of total fatty acids within each lipid class"}, {"measurement": "16:1n7", "setting": "Heart, FFA, mean", "result": "3.0 percentage of total fatty acids within each lipid class"}, {"measurement": "18:0", "setting": "Heart, FFA, mean", "result": "8.3 percentage of total fatty acids within each lipid class"}, {"measurement": "18:1n7", "setting": "Heart, FFA, mean", "result": "3.6 percentage of total fatty acids within each lipid class"}, {"measurement": "18:1n9", "setting": "Heart, FFA, mean", "result": "18.7 percentage of total fatty acids within each lipid class"}, {"measurement": "Saturates", "setting": "Heart, FFA, mean", "result": "33.8 percentage of total fatty acids within each lipid class"}, {"measurement": "Total", "setting": "Heart, FFA, mean", "result": "100.0 percentage of total fatty acids within each lipid class"}, {"measurement": "Total n7", "setting": "Heart, FFA, mean", "result": "6.6 percentage of total fatty acids within each lipid class"}, {"measurement": "Total n9", "setting": "Heart, FFA, mean", "result": "19.4 percentage of total fatty acids within each lipid class"}, {"measurement": "14:0", "setting": "[1]", "result": 52.4, "unit": "nanomoles per gram"}, {"measurement": "16:0", "setting": "[1]", "result": 560.7, "unit": "nanomoles per gram"}, {"measurement": "16:1n7", "setting": "[1]", "result": 73.6, "unit": "nanomoles per gram"}, {"measurement": "18:0", "setting": "[1]", "result": 206.9, "unit": "nanomoles per gram"}, {"measurement": "18:1n7", "setting": "[1]", "result": 90.0, "unit": "nanomoles per gram"}, {"measurement": "18:1n9", "setting": "[1]", "result": 466.4, "unit": "nanomoles per gram"}, {"measurement": "Saturates", "setting": "[1]", "result": 839.0, "unit": "nanomoles per gram"}, {"measurement": "Total n7", "setting": "[1]", "result": 163.6, "unit": "nanomoles per gram"}, {"measurement": "Total n9", "setting": "[1]", "result": 483.8, "unit": "nanomoles per gram"}, {"measurement": "Total nMole of", "setting": "[1]", "result": 2482.9, "unit": "nanomoles per gram"}, {"measurement": "14:0", "setting": "Heart, PC, mean", "result": "0.2 percentage of total fatty acids within each lipid class"}, {"measurement": "16:0", "setting": "Heart, PC, mean", "result": "29.2 percentage of total fatty acids within each lipid class"}, {"measurement": "16:1n7", "setting": "Heart, PC, mean", "result": "1.0 percentage of total fatty acids within each lipid class"}, {"measurement": "18:0", "setting": "Heart, PC, mean", "result": "11.6 percentage of total fatty acids within each lipid class"}, {"measurement": "18:1n7", "setting": "Heart, PC, mean", "result": "4.0 percentage of total fatty acids within each lipid class"}, {"measurement": "18:1n9", "setting": "Heart, PC, mean", "result": "10.7 percentage of total fatty acids within each lipid class"}, {"measurement": "Saturates", "setting": "Heart, PC, mean", "result": "41.4 percentage of total fatty acids within each lipid class"}, {"measurement": "Total", "setting": "Heart, PC, mean", "result": "100.0 percentage of total fatty acids within each lipid class"}, {"measurement": "Total n7", "setting": "Heart, PC, mean", "result": "5.0 percentage of total fatty acids within each lipid class"}, {"measurement": "Total n9", "setting": "Heart, PC, mean", "result": "10.9 percentage of total fatty acids within each lipid class"}, {"measurement": "14:0", "setting": "[2]", "result": 68.3, "unit": "nanomoles per gram"}, {"measurement": "16:0", "setting": "[2]", "result": 8497.6, "unit": "nanomoles per gram"}, {"measurement": "16:1n7", "setting": "[2]", "result": 289.1, "unit": "nanomoles per gram"}, {"measurement": "18:0", "setting": "[2]", "result": 3392.4, "unit": "nanomoles per gram"}, {"measurement": "18:1n7", "setting": "[2]", "result": 1154.7, "unit": "nanomoles per gram"}, {"measurement": "18:1n9", "setting": "[2]", "result": 3120.1, "unit": "nanomoles per gram"}, {"measurement": "Saturates", "setting": "[2]", "result": 12059.6, "unit": "nanomoles per gram"}, {"measurement": "Total n7", "setting": "[2]", "result": 1443.8, "unit": "nanomoles per gram"}, {"measurement": "Total n9", "setting": "[2]", "result": 3184.2, "unit": "nanomoles per gram"}, {"measurement": "Total nMole of", "setting": "[2]", "result": 14579.5, "unit": "nanomoles per gram"}, {"measurement": "14:0", "setting": "Heart, PS/I, mean", "result": "0.3 percentage of total fatty acids within each lipid class"}, {"measurement": "16:0", "setting": "Heart, PS/I, mean", "result": "5.2 percentage of total fatty acids within each lipid class"}, {"measurement": "16:1n7", "setting": "Heart, PS/I, mean", "result": "0.4 percentage of total fatty acids within each lipid class"}, {"measurement": "18:0", "setting": "Heart, PS/I, mean", "result": "33.6 percentage of total fatty acids within each lipid class"}, {"measurement": "18:1n7", "setting": "Heart, PS/I, mean", "result": "1.4 percentage of total fatty acids within each lipid class"}, {"measurement": "18:1n9", "setting": "Heart, PS/I, mean", "result": "5.1 percentage of total fatty acids within each lipid class"}, {"measurement": "Saturates", "setting": "Heart, PS/I, mean", "result": "39.7 percentage of total fatty acids within each lipid class"}, {"measurement": "Total", "setting": "Heart, PS/I, mean", "result": "100.0 percentage of total fatty acids within each lipid class"}, {"measurement": "Total n7", "setting": "Heart, PS/I, mean", "result": "1.8 percentage of total fatty acids within each lipid class"}, {"measurement": "Total n9", "setting": "Heart, PS/I, mean", "result": "5.8 percentage of total fatty acids within each lipid class"}, {"measurement": "14:0", "setting": "[3]", "result": 25.3, "unit": "nanomoles per gram"}, {"measurement": "16:0", "setting": "[3]", "result": 515.0, "unit": "nanomoles per gram"}, {"measurement": "16:1n7", "setting": "[3]", "result": 36.4, "unit": "nanomoles per gram"}, {"measurement": "18:0", "setting": "[3]", "result": 3334.5, "unit": "nanomoles per gram"}, {"measurement": "18:1n7", "setting": "[3]", "result": 143.9, "unit": "nanomoles per gram"}, {"measurement": "18:1n9", "setting": "[3]", "result": 504.6, "unit": "nanomoles per gram"}, {"measurement": "Saturates", "setting": "[3]", "result": 3945.4, "unit": "nanomoles per gram"}, {"measurement": "Total n7", "setting": "[3]", "result": 180.2, "unit": "nanomoles per gram"}, {"measurement": "Total n9", "setting": "[3]", "result": 572.9, "unit": "nanomoles per gram"}, {"measurement": "Total nMole of", "setting": "[3]", "result": 4967.1, "unit": "nanomoles per gram"}, {"measurement": "14:0", "setting": "Heart, TAG, mean", "result": "3.0 percentage of total fatty acids within each lipid class"}, {"measurement": "16:0", "setting": "Heart, TAG, mean", "result": "26.0 percentage of total fatty acids within each lipid class"}, {"measurement": "16:1n7", "setting": "Heart, TAG, mean", "result": "4.9 percentage of total fatty acids within each lipid class"}, {"measurement": "18:0", "setting": "Heart, TAG, mean", "result": "3.5 percentage of total fatty acids within each lipid class"}, {"measurement": "18:1n7", "setting": "Heart, TAG, mean", "result": "3.2 percentage of total fatty acids within each lipid class"}, {"measurement": "18:1n9", "setting": "Heart, TAG, mean", "result": "26.2 percentage of total fatty acids within each lipid class"}, {"measurement": "14:0", "setting": "[4]", "result": 160.8, "unit": "nanomoles per gram"}, {"measurement": "16:0", "setting": "[4]", "result": 1597.3, "unit": "nanomoles per gram"}, {"measurement": "16:1n7", "setting": "[4]", "result": 316.4, "unit": "nanomoles per gram"}, {"measurement": "18:0", "setting": "[4]", "result": 173.5, "unit": "nanomoles per gram"}, {"measurement": "18:1n7", "setting": "[4]", "result": 210.7, "unit": "nanomoles per gram"}, {"measurement": "18:1n9", "setting": "[4]", "result": 1775.7, "unit": "nanomoles per gram"}, {"measurement": "Saturates", "setting": "[4]", "result": 1993.9, "unit": "nanomoles per gram"}, {"measurement": "Total n7", "setting": "[4]", "result": 527.1, "unit": "nanomoles per gram"}, {"measurement": "Total n9", "setting": "[4]", "result": 1813.1, "unit": "nanomoles per gram"}, {"measurement": "Total nMole of", "setting": "[4]", "result": 2014.7, "unit": "nanomoles per gram"}, {"measurement": "14:0", "setting": "Liver, CE, mean", "result": "1.9 percentage of total fatty acids within each lipid class"}, {"measurement": "16:0", "setting": "Liver, CE, mean", "result": "48.0 percentage of total fatty acids within each lipid class"}, {"measurement": "16:1n7", "setting": "Liver, CE, mean", "result": "11.8 percentage of total fatty acids within each lipid class"}, {"measurement": "18:0", "setting": "Liver, CE, mean", "result": "3.5 percentage of total fatty acids within each lipid class"}, {"measurement": "18:1n7", "setting": "Liver, CE, mean", "result": "2.3 percentage of total fatty acids within each lipid class"}, {"measurement": "18:1n9", "setting": "Liver, CE, mean", "result": "19.9 percentage of total fatty acids within each lipid class"}, {"measurement": "Saturates", "setting": "Liver, CE, mean", "result": "54.6 percentage of total fatty acids within each lipid class"}, {"measurement": "Total", "setting": "Liver, CE, mean", "result": "100.0 percentage of total fatty acids within each lipid class"}, {"measurement": "Total n7", "setting": "Liver, CE, mean", "result": "14.1 percentage of total fatty acids within each lipid class"}, {"measurement": "Total n9", "setting": "Liver, CE, mean", "result": "20.5 percentage of total fatty acids within each lipid class"}, {"measurement": "14:0", "setting": "[5]", "result": 110.6, "unit": "nanomoles per gram"}, {"measurement": "16:0", "setting": "[5]", "result": 2765.2, "unit": "nanomoles per gram"}, {"measurement": "16:1n7", "setting": "[5]", "result": 678.5, "unit": "nanomoles per gram"}]}]}
